{"source": "patent US20250360235A1", "about": "“RADI[…] AND METHOD FOR RADIOLABELLING” (Telix Innovations SA, priority 2024, published 2025)", "test": "Radiochemical purity by iTLC over time after radiolabelling", "format": "physicochemical", "method": "Table 1 to Table 5 show the results of various radiolabelling experiments on radiochemical purity and the chelation yield. The radiolabelling experiments in the tables are carried out as described in: • Example 1 for when the gallium-68 source is GE Liquid target generator and EZAG GalliaPharm generator; • Example 2 for when the gallium-68 source is IRE Galli Eo generator; • Example 3 for when the gallium-68 source is GE solid target generator;\nHowever, the experiments were carried out with the amount of ascorbic acid as indicated in the Tables 1 to 5, and the activity as indicated in the Tables 1 to 5. Radiochemical purities were measured at various times (T0, T1, T4, T6) after the radiolabelled experiments have been conducted.\nThe kits of Example 1, Example 2 or Example 3, with amounts of ascorbic acid as set out in Table 7 were used in the experiments for the ascorbic acid bracketing matrix. Three strengths of [^68Ga]Ga-PSMA-11 will be tested, i.e. 50 mCi/ml, 7 mCi/ml and 1 mCi/ml. Radiochemical purity was determined at different time points (TO, T1, T4 or T6), as set out in Table 7.", "key": {"[1]": {"conditions": "1 mg ascorbic acid, 58.7-71.1 mCi, 7.47-8.99 mCi/mL, GE Liquid target, average of 3, T0"}, "[2]": {"conditions": "1 mg ascorbic acid, 58.7-71.1 mCi, 7.47-8.99 mCi/mL, GE Liquid target, average of 3, T4 (4 h)"}, "[3]": {"conditions": "1 mg ascorbic acid, 58.7-71.1 mCi, 7.47-8.99 mCi/mL, GE Liquid target, n=3, T0"}, "[4]": {"conditions": "1 mg ascorbic acid, 58.7-71.1 mCi, 7.47-8.99 mCi/mL, GE Liquid target, n=3, T4 (4 h)"}, "[5]": {"conditions": "2.5 mg ascorbic acid, 49.9-76.9 mCi, 6.31-9.72 mCi/mL, GE Liquid target, average of 3, T0"}, "[6]": {"conditions": "2.5 mg ascorbic acid, 49.9-76.9 mCi, 6.31-9.72 mCi/mL, GE Liquid target, average of 3, T4 (4 h)"}, "[7]": {"conditions": "2.5 mg ascorbic acid, 49.9-76.9 mCi, 6.31-9.72 mCi/mL, GE Liquid target, n=3, T0"}, "[8]": {"conditions": "2.5 mg ascorbic acid, 49.9-76.9 mCi, 6.31-9.72 mCi/mL, GE Liquid target, n=3, T4 (4 h)"}, "[9]": {"conditions": "5 mg ascorbic acid, 60-69.9 mCi, 7.61-8.81 mCi/mL, 3 × GE Liquid Target, 3 × EZAG GalliaPharm, average of 6, T0"}, "[10]": {"conditions": "5 mg ascorbic acid, 60-69.9 mCi, 7.61-8.81 mCi/mL, 3 × GE Liquid Target, 3 × EZAG GalliaPharm, average of 6, T4 (4 h)"}, "[11]": {"conditions": "5 mg ascorbic acid, 60-69.9 mCi, 7.61-8.81 mCi/mL, 3 × GE Liquid Target, 3 × EZAG GalliaPharm, n=6, T0"}, "[12]": {"conditions": "5 mg ascorbic acid, 60-69.9 mCi, 7.61-8.81 mCi/mL, 3 × GE Liquid Target, 3 × EZAG GalliaPharm, n=6, T4 (4 h)"}, "[13]": {"conditions": "10 mg ascorbic acid, 458-500 mCi, 43.4-47.3 mCi/mL, GE Solid Target, average of 3, T0"}, "[14]": {"conditions": "10 mg ascorbic acid, 458-500 mCi, 43.4-47.3 mCi/mL, GE Solid Target, average of 3, T4 (4 h)"}, "[15]": {"conditions": "10 mg ascorbic acid, 458-500 mCi, 43.4-47.3 mCi/mL, GE Solid Target, n=3, T0"}, "[16]": {"conditions": "10 mg ascorbic acid, 458-500 mCi, 43.4-47.3 mCi/mL, GE Solid Target, n=3, T4 (4 h)"}, "[17]": {"conditions": "10 mg ascorbic acid, 514-520 mCi, 49.0-66.1 mCi/mL, GE Solid Target, average of 3, T0"}, "[18]": {"conditions": "10 mg ascorbic acid, 514-520 mCi, 49.0-66.1 mCi/mL, GE Solid Target, average of 3, T6 (6 h)"}, "[19]": {"conditions": "10 mg ascorbic acid, 514-520 mCi, 49.0-66.1 mCi/mL, GE Solid Target, n=3, T0"}, "[20]": {"conditions": "10 mg ascorbic acid, 514-520 mCi, 49.0-66.1 mCi/mL, GE Solid Target, n=3, T6 (6 h)"}}, "data": [{"compound": "O=C([O-])CN(CCN(CC(=O)[O-])Cc1cc(CCC(=O)NCCCCCC(=O)NCCCC[C@H](NC(=O)N[C@@H](CCC(=O)O)C(=O)O)C(=O)O)ccc1[O-])Cc1cc(CCC(=O)O)ccc1[O-].[68Ga+3].[OH3+]", "note": "[[^68Ga]PSMA-11, gallium-68 radiolabelled Glu-urea-Lys-HBED-CC (gozetotide or PSMA-11)]", "values": [{"measurement": "Radiochemical Purity (iTLC) Free and Colloidal Ga-68 (%)", "setting": "[1]", "value": 0, "unit": "%"}, {"measurement": "Radiochemical Purity (iTLC) Ga-68 PSMA-11 (%)", "setting": "[1]", "value": 100, "unit": "%"}, {"measurement": "Radiochemical Purity (iTLC) Free and Colloidal Ga-68 (%)", "setting": "[2]", "value": 0, "unit": "%"}, {"measurement": "Radiochemical Purity (iTLC) Ga-68 PSMA-11 (%)", "setting": "[2]", "value": 100, "unit": "%"}, {"measurement": "Radiochemical Purity (iTLC) Free and Colloidal Ga-68 (%)", "setting": "[3]", "value": "C (C = conforms to specifications)"}, {"measurement": "Radiochemical Purity (iTLC) Ga-68 PSMA-11 (%)", "setting": "[3]", "value": "C (C = conforms to specifications)"}, {"measurement": "Radiochemical Purity (iTLC) Free and Colloidal Ga-68 (%)", "setting": "[4]", "value": "C (C = conforms to specifications)"}, {"measurement": "Radiochemical Purity (iTLC) Ga-68 PSMA-11 (%)", "setting": "[4]", "value": "C (C = conforms to specifications)"}, {"measurement": "Radiochemical Purity (iTLC) Free and Colloidal Ga-68 (%)", "setting": "[5]", "value": 0, "unit": "%"}, {"measurement": "Radiochemical Purity (iTLC) Ga-68 PSMA-11 (%)", "setting": "[5]", "value": 100, "unit": "%"}, {"measurement": "Radiochemical Purity (iTLC) Free and Colloidal Ga-68 (%)", "setting": "[6]", "value": 0, "unit": "%"}, {"measurement": "Radiochemical Purity (iTLC) Ga-68 PSMA-11 (%)", "setting": "[6]", "value": 100, "unit": "%"}, {"measurement": "Radiochemical Purity (iTLC) Free and Colloidal Ga-68 (%)", "setting": "[7]", "value": "C (C = conforms to specifications)"}, {"measurement": "Radiochemical Purity (iTLC) Ga-68 PSMA-11 (%)", "setting": "[7]", "value": "C (C = conforms to specifications)"}, {"measurement": "Radiochemical Purity (iTLC) Free and Colloidal Ga-68 (%)", "setting": "[8]", "value": "C (C = conforms to specifications)"}, {"measurement": "Radiochemical Purity (iTLC) Ga-68 PSMA-11 (%)", "setting": "[8]", "value": "C (C = conforms to specifications)"}, {"measurement": "Radiochemical Purity (iTLC) Free and Colloidal Ga-68 (%)", "setting": "[9]", "value": 0, "unit": "%"}, {"measurement": "Radiochemical Purity (iTLC) Ga-68 PSMA-11 (%)", "setting": "[9]", "value": 100, "unit": "%"}, {"measurement": "Radiochemical Purity (iTLC) Free and Colloidal Ga-68 (%)", "setting": "[10]", "value": 0, "unit": "%"}, {"measurement": "Radiochemical Purity (iTLC) Ga-68 PSMA-11 (%)", "setting": "[10]", "value": 100, "unit": "%"}, {"measurement": "Radiochemical Purity (iTLC) Free and Colloidal Ga-68 (%)", "setting": "[11]", "value": "C (C = conforms to specifications)"}, {"measurement": "Radiochemical Purity (iTLC) Ga-68 PSMA-11 (%)", "setting": "[11]", "value": "C (C = conforms to specifications)"}, {"measurement": "Radiochemical Purity (iTLC) Free and Colloidal Ga-68 (%)", "setting": "[12]", "value": "C (C = conforms to specifications)"}, {"measurement": "Radiochemical Purity (iTLC) Ga-68 PSMA-11 (%)", "setting": "[12]", "value": "C (C = conforms to specifications)"}, {"measurement": "Radiochemical Purity (iTLC) Free and Colloidal Ga-68 (%)", "setting": "[13]", "value": 0, "unit": "%"}, {"measurement": "Radiochemical Purity (iTLC) Ga-68 PSMA-11 (%)", "setting": "[13]", "value": 100, "unit": "%"}, {"measurement": "Radiochemical Purity (iTLC) Free and Colloidal Ga-68 (%)", "setting": "[14]", "value": 0, "unit": "%"}, {"measurement": "Radiochemical Purity (iTLC) Ga-68 PSMA-11 (%)", "setting": "[14]", "value": 100, "unit": "%"}, {"measurement": "Radiochemical Purity (iTLC) Free and Colloidal Ga-68 (%)", "setting": "[15]", "value": "C (C = conforms to specifications)"}, {"measurement": "Radiochemical Purity (iTLC) Ga-68 PSMA-11 (%)", "setting": "[15]", "value": "C (C = conforms to specifications)"}, {"measurement": "Radiochemical Purity (iTLC) Free and Colloidal Ga-68 (%)", "setting": "[16]", "value": "C (C = conforms to specifications)"}, {"measurement": "Radiochemical Purity (iTLC) Ga-68 PSMA-11 (%)", "setting": "[16]", "value": "C (C = conforms to specifications)"}, {"measurement": "Radiochemical Purity (iTLC) Free and Colloidal Ga-68 (%)", "setting": "[17]", "value": 0, "unit": "%"}, {"measurement": "Radiochemical Purity (iTLC) Ga-68 PSMA-11 (%)", "setting": "[17]", "value": 100, "unit": "%"}, {"measurement": "Radiochemical Purity (iTLC) Free and Colloidal Ga-68 (%)", "setting": "[18]", "value": 0, "unit": "%"}, {"measurement": "Radiochemical Purity (iTLC) Ga-68 PSMA-11 (%)", "setting": "[18]", "value": 100, "unit": "%"}, {"measurement": "Radiochemical Purity (iTLC) Free and Colloidal Ga-68 (%)", "setting": "[19]", "value": "C (C = conforms to specifications)"}, {"measurement": "Radiochemical Purity (iTLC) Ga-68 PSMA-11 (%)", "setting": "[19]", "value": "C (C = conforms to specifications)"}, {"measurement": "Radiochemical Purity (iTLC) Free and Colloidal Ga-68 (%)", "setting": "[20]", "value": "C (C = conforms to specifications)"}, {"measurement": "Radiochemical Purity (iTLC) Ga-68 PSMA-11 (%)", "setting": "[20]", "value": "C (C = conforms to specifications)"}, {"measurement": "Radiochemical Purity (iTLC) Free and Colloidal Ga-68 (%)", "setting": "15 mg ascorbic acid, 10.0-18.4 mCi, 0.95-1.77 mCi/mL, 1 × EZAG GalliaPharm, 2 × IRE Galli Eo, average of 3, T0", "value": 0, "unit": "%"}]}]}
